pIC50: −log10 of the molar value.

20 compounds from patent US10870639B2, “Pyrimidine compounds and pharmaceutical compositions for preventing or treating cancers including the same” (HANMI PHARM. CO., LTD., priority 2018, dated 2020) can be followed below.

Data set [1] is described as follows: Pharmacokinetic profile in mice (p.o. and i.v.). It counts as in vivo. More on the design: AUC: concentration or dose not given beside the values. As to conditions: mouse, plasma; for AUC: LC-MS/MS, non-compartment analysis, read-out: Area under the curve (AUC) of mice; for bioavailability: po, BA=(AUC p.o./AUC i.v.)×(Dose i.v./Dose p.o.)×100. As for the experimental part: After test substances were formulated by using the selected solvents, they were administered orally (p.o.) and intravenously (iv) once for each and a certain amount of blood was taken at a predetermined time, and plasma was isolated from the blood and a concentration analysis was performed thereon by LC-MS/MS. The AUC (drug concentration and an area under the curve) was calculated according to the linear-log trapezoidal summation formula by using the non-compartment analysis of the WinNonlin program through the plasma concentration curves over time. The bioavailability (BA) was calculated by applying the calculated AUC value to the following formula. BA (%)=(AUC p.o./AUC i.v.)×(Dose i.v./Dose p.o.)×100

For data set [2], the system named is MOLM-13. The data set can be described thus: Cell growth inhibition (MTS), MOLM-13. In kind it is cell-based. As to conditions: Homo sapiens, MOLM-13, 72 h, incubation three days. As for the experimental part:
(§1) The human acute myelogenous leukemia […] cell line MOLM-13 (DSMZ no. ACC 554) was incubated in RPM11640 medium supplemented with 20% heat-inactivated FBS at a temperature of 37° C. The incubated cell line was prepared in an amount of 2.0×10^4 cells/100 μL, and then plated on a 96-well plate. The RPMI1640 medium was serially diluted with the test compounds at a concentration in a range of 1 μM to 0.01 nM at a ratio of 1:10. Subsequently, incubation was performed thereon for three days. For the human acute myelogenous leukemia cell line MV-4-11 cell line (ATCC® CRL-9591™), the cells were incubated at a temperature of 37° C. in IMDM medium supplemented with 10% FBS. The incubated cell line was prepared in an amount of 2×10^4 cells/100 μL, and then plated on a 96-well plate. The IMDM medium was treated with cascade dilution of three test compounds at a concentration in a range of 1 μM to 0.01 nM at a rate of 1/10. Subsequently, incubation was performed thereon for three days. MTS test was performed to measure cell viability, and the growth inhibition (GI50) value of the cell line was calculated using GraphPad Prism software.

Data set [3] concerns MV-4-11. Nature of the data set: Cell growth inhibition (MTS), MV-4-11. As to conditions: Homo sapiens, MV4-11, 72 h, incubation three days. It counts as cell-based. As to the method:
as §1

In data set [4] the target is FLT3 ITD (Homo sapiens, UniProt P36888, ITD). The data set can be described thus: LanthaScreen kinase binding assay, FLT3 ITD. (Time-resolved FRET reads energy transfer from a long-lived donor to a nearby acceptor.)
Chain of FLT3 ITD (P36888 whole entry, looked up, change not shown): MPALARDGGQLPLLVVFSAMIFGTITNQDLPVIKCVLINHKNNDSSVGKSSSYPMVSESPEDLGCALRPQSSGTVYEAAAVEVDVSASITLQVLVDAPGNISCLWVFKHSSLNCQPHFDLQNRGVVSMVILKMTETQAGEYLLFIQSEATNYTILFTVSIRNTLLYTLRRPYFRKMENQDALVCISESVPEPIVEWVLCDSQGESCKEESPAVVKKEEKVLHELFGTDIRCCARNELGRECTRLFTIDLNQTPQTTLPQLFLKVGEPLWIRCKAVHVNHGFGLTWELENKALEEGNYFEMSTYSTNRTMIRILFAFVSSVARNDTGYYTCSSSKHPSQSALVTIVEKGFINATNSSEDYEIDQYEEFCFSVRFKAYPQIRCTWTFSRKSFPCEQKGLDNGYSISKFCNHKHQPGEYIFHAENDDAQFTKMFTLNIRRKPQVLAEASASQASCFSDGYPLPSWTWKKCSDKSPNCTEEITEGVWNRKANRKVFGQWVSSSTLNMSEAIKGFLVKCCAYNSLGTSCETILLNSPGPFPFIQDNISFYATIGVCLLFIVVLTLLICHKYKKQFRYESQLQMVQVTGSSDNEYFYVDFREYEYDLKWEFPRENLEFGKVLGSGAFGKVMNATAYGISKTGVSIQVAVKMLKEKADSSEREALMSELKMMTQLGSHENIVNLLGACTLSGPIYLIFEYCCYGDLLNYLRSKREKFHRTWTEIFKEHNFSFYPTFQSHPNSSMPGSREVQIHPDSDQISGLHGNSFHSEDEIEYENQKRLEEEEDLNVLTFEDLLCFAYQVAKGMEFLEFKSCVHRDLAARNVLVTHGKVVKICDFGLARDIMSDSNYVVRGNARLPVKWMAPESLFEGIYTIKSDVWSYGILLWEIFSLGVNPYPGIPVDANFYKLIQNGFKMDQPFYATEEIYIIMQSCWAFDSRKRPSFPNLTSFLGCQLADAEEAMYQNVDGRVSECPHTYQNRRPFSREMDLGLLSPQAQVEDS
Protocol: (§2) The inhibitory activity of some of the compounds described above against FLT3-ITD, FLT3 wild type (WT), VEGFR2 (KDR), and SYK kinase was measured.
(§3) This experiment was carried out on a 384-well plate in conditions including 50 mM HEPES pH 7.5, 0.01% BRIJ-35, 10 mM MgCl2, 1 mM EGTA, and 1% DMSO.
For data set [5], the target named is FLT3 WT (Homo sapiens (Human), UniProt P36888). The data set can be described thus: LanthaScreen kinase binding assay, FLT3 WT. As to conditions: kinase tracer-236, 50 nM to 0.05 nM.
Chain of FLT3 WT (P36888 27-993): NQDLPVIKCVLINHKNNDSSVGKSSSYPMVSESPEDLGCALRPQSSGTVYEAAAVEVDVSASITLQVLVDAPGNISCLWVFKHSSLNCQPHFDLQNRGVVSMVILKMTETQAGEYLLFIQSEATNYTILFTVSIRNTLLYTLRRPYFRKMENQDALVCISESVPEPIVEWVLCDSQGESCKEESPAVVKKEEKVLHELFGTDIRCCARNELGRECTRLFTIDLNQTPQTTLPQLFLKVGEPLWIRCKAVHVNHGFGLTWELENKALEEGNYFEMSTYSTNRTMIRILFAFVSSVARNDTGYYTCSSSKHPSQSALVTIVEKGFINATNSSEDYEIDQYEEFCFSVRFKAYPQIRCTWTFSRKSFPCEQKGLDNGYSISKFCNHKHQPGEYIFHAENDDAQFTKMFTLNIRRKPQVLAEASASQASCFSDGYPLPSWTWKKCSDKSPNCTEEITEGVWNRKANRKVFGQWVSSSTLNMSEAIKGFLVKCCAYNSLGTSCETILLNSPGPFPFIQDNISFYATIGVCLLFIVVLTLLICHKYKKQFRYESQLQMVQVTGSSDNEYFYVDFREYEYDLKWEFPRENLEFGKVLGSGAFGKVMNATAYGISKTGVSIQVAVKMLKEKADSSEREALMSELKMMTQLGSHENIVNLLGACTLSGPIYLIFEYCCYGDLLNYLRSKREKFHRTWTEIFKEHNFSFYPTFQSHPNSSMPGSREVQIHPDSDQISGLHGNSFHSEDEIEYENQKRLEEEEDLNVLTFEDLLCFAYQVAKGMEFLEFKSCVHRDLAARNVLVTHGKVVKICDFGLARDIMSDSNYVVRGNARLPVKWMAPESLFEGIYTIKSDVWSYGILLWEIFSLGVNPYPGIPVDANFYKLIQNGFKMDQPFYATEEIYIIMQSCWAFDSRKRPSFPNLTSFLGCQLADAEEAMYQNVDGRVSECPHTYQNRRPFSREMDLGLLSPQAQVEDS
Protocol: as §2, §3

With `COc1cc(CN2CCN(CCO)CC2)cc(Nc2ncc(Cl)c(-c3c[nH]c4ccccc34)n2)c1` [Control Compound 1], in data set [1], the AUC stood at 95.5 ng·h/mL and the bioavailability turned out to be 6.6%.
In the case of `OCCN1CCN(Cc2cccc(Nc3ncc(Cl)c(-c4c[nH]c5ccccc45)n3)c2)CC1` [Control Compound 2], in data set [1], the AUC was 110 ng·h/mL and the bioavailability was 6.7%.
Regarding `Cc1ccc2c(-c3nc(Nc4cc(C5CC5)cc(N5CCC(N(C)C)CC5)c4)ncc3Cl)c[nH]c2c1` [Control Compound 3], in data set [1], the AUC stood at 2270 ng·h/mL and the bioavailability came out at 27.3%.
In the case of `CN(C)C1CCN(c2cc(Nc3ncc(Cl)c(-c4c[nH]c5ccccc45)n3)cc(C3CC3)c2)CC1` [Control Compound 4], in data set [1], the AUC stood at 518 ng·h/mL and the bioavailability turned out to be 27%.
On to `Cc1ccc2c(-c3nc(Nc4cc(CN5CCN(C(C)(C)CO)CC5)cc(C5CC5)c4)ncc3Cl)c[nH]c2c1` [Control Compound 5], for which, in data set [1], the AUC was found to be 1220 ng·h/mL and the bioavailability was 25.6%.
With `C[C@@H]1CN(Cc2cc(Nc3ncc(Cl)c(-c4c[nH]c5cc(Cl)ccc45)n3)cc(C3CC3)c2)C[C@H](C)N1` [Example 2, 5-chloro-4-(6-chloro-1H-indole-3-yl)-N-(3-cyclopropyl-5-(((3R,5S)-3,5-dimethylpiperazine-1-yl)methyl)phenyl)pyrimidine-2-amine], the GI50 in data set [2] was determined as 6.2 nM; in data set [3], 3.5 nM. Moreover, the figures for the pIC50 in data set [4] and in data set [5] were 8.82 and 8.72, respectively.
As for `C[C@@H]1CN(Cc2cc(Nc3ncc(Cl)c(-c4c[nH]c5cc(F)ccc45)n3)cc(C3CC3)c2)C[C@H](C)N1CCO` [Example 3, 2-((2R,6S)-4-(3-((5-chloro-4-(6-fluoro-1H-indole-3-yl)pyrimidine-2-yl)amino)-5-cyclopropylbenzyl)-2,6-dimethylpiperazine-1-yl)ethane-1-ol], the GI50 turned out to be 0.4 nM in data set [2] and 0.3 nM in data set [3]. The same compound had a pIC50 in data set [4] of 8.09.
`C[C@@H]1CN(Cc2cc(Nc3ncc(Cl)c(-c4c[nH]c5ccccc45)n3)cc(C3CC3)c2)C[C@H](C)N1CCO` [Example 4, 2-((2R,6S)-4-(3-((5-chloro-4-(1H-indole-3-yl)pyrimidine-2-yl)amino)-5-cyclopropylbenzyl)-2,6-dimethylpiperazine-1-yl)ethane-1-ol]: growth in data set [2] was halved (GI50) at 0.7 nM. Moreover, it took 1.7 nM to inhibit growth in data set [3] by half (GI50). The compound further gave a pIC50 in data set [4] of 8.44. For the same compound, in data set [1], the AUC is 184 ng·h/mL and the bioavailability was found to be 7.4%.
The compound `C[C@@H]1CN(Cc2cc(Nc3ncc(Cl)c(-c4c[nH]c5ccccc45)n3)cc(C3CC3)c2)CCN1` [Example 6, (R)-5-chloro-N-(3-cyclopropyl-5-((3-methylpiperazine-1-yl)methyl)phenyl)-4-(1H-indole-3-yl)pyrimidine-2-amine] had a negative-log IC50 (pIC50) in data set [4] of 8.74.
In the case of `Cc1ccc2c(-c3nc(Nc4cc(CN5CC(C)NC(C)C5)cc(C5CC5)c4)ncc3Cl)c[nH]c2c1` (stereo not drawn) [Example 10, 5-chloro-N-(3-cyclopropyl-5-((3,5-dimethylpiperazine-1-yl)methyl)phenyl)-4-(6-methyl-1H-indole-3-yl)pyrimidine-2-amine], the GI50 in data set [2] stood at 5 nM; in data set [3], 2.8 nM.
As for `Cc1ccc2c(-c3nc(Nc4cc(CN5C[C@@H](C)N[C@@H](C)C5)cc(C5CC5)c4)ncc3F)c[nH]c2c1` [Example 12, N-(3-cyclopropyl-5-(((3R,5S)-3,5-dimethylpiperazine-1-yl)methyl)phenyl)-5-fluoro-4-(6-methyl-1H-indole-3-yl)pyrimidine-2-amine], the GI50 in data set [2] was 21 nM; in data set [3] it was 11 nM. Moreover, the figures for the pIC50 in data set [4] and in data set [5] were 8.60 and 8.92, respectively.
With `Cc1cnc(Nc2cc(CN3C[C@@H](C)N[C@@H](C)C3)cc(C3CC3)c2)nc1-c1c[nH]c2ccccc12` [Example 13, N-(3-cyclopropyl-5-(((3R,5S)-3,5-dimethylpiperazine-1-yl)methyl)phenyl)-4-(1H-indole-3-yl)-5-methylpyrimidine-2-amine], the concentration for 50% growth inhibition (GI50) is 2.6 nM in data set [2] and 2.1 nM in data set [3]. The same compound showed a pIC50 in data set [4] of 8.06.
For the compound `C[C@@H]1CN(Cc2cc(Nc3ncc(Cl)c(-c4c[nH]c5cc(CO)ccc45)n3)cc(C3CC3)c2)C[C@H](C)N1` [Example 16, (3-(5-chloro-2-((3-cyclopropyl-5-(((3R,5S)-3,5-dimethylpiperazine-1-yl)methyl)phenyl)amino)pyrimidine-4-yl)-1H-indole-6-yl)methanol], the pIC50 in data set [4] is 9.30; in data set [5] it was 9.40.
Take `COc1cc2c(-c3nc(Nc4cc(CN5C[C@@H](C)N[C@@H](C)C5)cc(C5CC5)c4)ncc3Cl)c[nH]c2cc1C` [Example 17, 5-chloro-N-(3-cyclopropyl-5-(((3R,5S)-3,5-dimethylpiperazine-1-yl)methyl)phenyl)-4-(5-methoxy-6-methyl-1H-indole-3-yl)pyrimidine-2-amine]: the results for the pIC50 in data set [4] and in data set [5] were less than 7.30 and 8.02, respectively.
On to `Cc1cc2[nH]cc(-c3nc(Nc4cc(CN5C[C@@H](C)N[C@@H](C)C5)cc(C5CC5)c4)ncc3Cl)c2cc1O` [Example 18, 3-(5-chloro-2-((3-cyclopropyl-5-(((3R,5S)-3,5-dimethylpiperazine-1-yl)methyl)phenyl)amino)pyrimidine-4-yl)-6-methyl-1H-indole-5-ol], for which the pIC50 was 7.89 in data set [4] and 8.43 in data set [5].
Turning to `Cc1ccc2c(c1)NC(=O)C2c1nc(Nc2cc(CN3C[C@@H](C)N[C@@H](C)C3)cc(C3CC3)c2)ncc1Cl` (stereo partly drawn) [Example 19, 3-(5-chloro-2-((3-cyclopropyl-5-(((3R,5S)-3,5-dimethylpiperazine-1-yl)methyl)phenyl)amino)pyrimidine-4-yl)-6-methylindoline-2-one], in data set [4], the pIC50 is less than 7.30.
In the case of `Cc1ccc2c(-c3nc(Nc4cc(CN5C[C@@H](C)N[C@@H](C)C5)cc(C5CC5)c4)ncc3Cl)c[nH]c2c1O` [Example 22, 3-(5-chloro-2-((3-cyclopropyl-5-(((3R,5S)-3,5-dimethylpiperazine-1-yl)methyl)phenyl)amino)pyrimidine-4-yl)-6-methyl-1H-indole-7-ol], the negative-log IC50 (pIC50) in data set [4] is 8.62.
As for `Cc1ccc2c(-c3nc(Nc4cc(C5CC5)cc(CN5C[C@@H](C)N[C@@H](C)C5)c4O)ncc3Cl)c[nH]c2c1` [Example 23, 2-((5-chloro-4-(6-methyl-1H-indole-3-yl)pyrimidine-2-yl)amino)-4-cyclopropyl-6-(((3R,5S)-3,5-dimethylpiperazine-1-yl)methyl)phenol], the pIC50 in data set [4] is less than 7.30; in data set [5], 9.40.
For the compound `Cc1ccc2c(-c3nc(Nc4cc(CN5C[C@@H](C)N[C@H](C)C5)cc(C5CC5)c4)ncc3Cl)c[nH]c2c1` [Example 28, 5-chloro-N-(3-cyclopropyl-5-(((3R,5R)-3,5-dimethylpiperazine-1-yl)methyl)phenyl)-4-(6-methyl-1H-indole-3-yl)pyrimidine-2-amine], the results for the GI50 in data set [2] and in data set [3] were 0.8 nM and less than 0.01 nM, respectively.
In the case of `Cc1ccc2c(-c3nc(Nc4cc(CN5C[C@@H](C)N(O)[C@@H](C)C5)cc(C5CC5)c4)ncc3Cl)c[nH]c2c1` [Example 31, (2R,6S)-4-(3-((5-chloro-4-(6-methyl-1H-indole-3-yl)pyrimidine-2-yl)amino)-5-cyclopropylbenzyl)-2,6-dimethylpiperazine-1-ol], the pIC50 in data set [4] was 8.16.

As usually defined, the AUC is concentration integrated over time. As usually defined, the bioavailability is dose-corrected exposure relative to a reference, in per cent. As usually defined, the GI50 is the concentration at which growth is held to half of that of the control. The pIC50 is the IC50 on a negative log10 scale, so that one unit is a factor of ten.
